Measured values as given in US20050282743A1, “Molecular interactions in cells” (Arbor Vita Corporation, priority 2001, published 2005).
Read-outs that look alike come from different tables or passages of the source. Peptide text beside a SMILES is read from it. * marks the point of attachment. Biotin = O=C1N[C@H]2[C@H](CS[C@H]2CCCCC(=O)*)N1

How the values were obtained:
Assay in all cases: Apparent affinity (Kd) by titration of PL peptide in the G assay
Type in all cases: binding
[1] = target: T1, PDZ-domain polypeptide (GST/PDZ fusion protein) (Homo sapiens, UniProt Q6P0Q8); conditions: PDZ KIAA0807(S), PDZ Domain 1; Protein Optimal Conc 5; read-out: Peptide Optimal Conc (Kd by titration of the PL peptide)
T1 construct: made in house; host or cells: E. coli (DH5alpha, BL21 or JM109)
T1 sequence (Q6P0Q8 whole entry, the tested form may be a part): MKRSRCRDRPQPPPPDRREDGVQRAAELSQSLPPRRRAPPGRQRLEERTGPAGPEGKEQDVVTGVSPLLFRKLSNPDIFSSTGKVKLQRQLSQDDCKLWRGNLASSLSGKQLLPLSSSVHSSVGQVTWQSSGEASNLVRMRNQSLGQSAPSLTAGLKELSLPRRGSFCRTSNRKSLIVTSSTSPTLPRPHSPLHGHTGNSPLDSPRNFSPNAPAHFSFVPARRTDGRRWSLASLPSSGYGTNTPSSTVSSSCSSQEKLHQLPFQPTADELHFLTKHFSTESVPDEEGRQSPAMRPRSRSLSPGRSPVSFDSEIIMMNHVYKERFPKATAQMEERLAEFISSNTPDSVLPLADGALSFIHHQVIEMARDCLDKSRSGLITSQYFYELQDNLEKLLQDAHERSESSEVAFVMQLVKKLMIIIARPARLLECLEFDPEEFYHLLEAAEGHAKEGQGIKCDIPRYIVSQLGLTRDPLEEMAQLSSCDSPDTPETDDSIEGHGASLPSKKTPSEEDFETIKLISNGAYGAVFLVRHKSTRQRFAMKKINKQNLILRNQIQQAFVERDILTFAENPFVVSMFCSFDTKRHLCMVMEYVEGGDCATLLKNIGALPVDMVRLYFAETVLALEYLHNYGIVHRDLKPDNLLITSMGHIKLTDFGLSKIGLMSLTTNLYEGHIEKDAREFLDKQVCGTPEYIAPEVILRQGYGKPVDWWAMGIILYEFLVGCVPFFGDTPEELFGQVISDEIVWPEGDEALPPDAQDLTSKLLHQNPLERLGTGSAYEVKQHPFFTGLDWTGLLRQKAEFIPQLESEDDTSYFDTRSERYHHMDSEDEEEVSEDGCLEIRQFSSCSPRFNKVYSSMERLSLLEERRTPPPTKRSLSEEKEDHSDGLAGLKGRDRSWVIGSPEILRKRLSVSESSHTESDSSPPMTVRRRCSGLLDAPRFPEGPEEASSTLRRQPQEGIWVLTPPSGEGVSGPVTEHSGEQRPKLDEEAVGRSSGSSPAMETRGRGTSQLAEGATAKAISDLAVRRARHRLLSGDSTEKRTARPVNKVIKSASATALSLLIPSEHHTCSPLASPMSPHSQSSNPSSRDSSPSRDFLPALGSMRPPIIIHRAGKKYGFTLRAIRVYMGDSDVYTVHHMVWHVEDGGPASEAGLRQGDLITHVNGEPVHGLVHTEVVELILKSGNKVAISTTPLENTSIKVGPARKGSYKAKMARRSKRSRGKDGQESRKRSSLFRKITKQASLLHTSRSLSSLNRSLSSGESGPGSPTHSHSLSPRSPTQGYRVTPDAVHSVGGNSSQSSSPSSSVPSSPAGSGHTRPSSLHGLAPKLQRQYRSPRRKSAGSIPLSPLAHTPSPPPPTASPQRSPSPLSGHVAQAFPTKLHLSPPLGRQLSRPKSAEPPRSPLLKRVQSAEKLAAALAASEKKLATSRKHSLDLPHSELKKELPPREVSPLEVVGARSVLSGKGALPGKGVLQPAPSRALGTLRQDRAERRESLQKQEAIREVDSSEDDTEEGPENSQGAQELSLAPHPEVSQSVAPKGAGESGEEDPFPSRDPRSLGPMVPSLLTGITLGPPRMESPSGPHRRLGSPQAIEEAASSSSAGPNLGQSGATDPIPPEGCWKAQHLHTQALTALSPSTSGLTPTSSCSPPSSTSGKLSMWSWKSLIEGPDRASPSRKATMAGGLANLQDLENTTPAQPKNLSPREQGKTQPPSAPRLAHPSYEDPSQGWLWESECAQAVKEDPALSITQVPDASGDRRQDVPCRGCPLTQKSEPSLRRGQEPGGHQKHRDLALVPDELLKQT
In short: (§1)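 A fixed concentration of GST/PDZ fusion protein, 5 ug/ml by default, was mixed in solution with increasing labeled PL peptide (e.g. 0.1 uM-1 mM). Reaction times ranged from 10 minutes to 2 days at 4-37° C. Complexes were separated from free peptide and detected via the label as in the G assay, apparent affinity coming from the saturating concentration.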

[2] = target: T2, PDZ-domain polypeptide (GST/PDZ fusion protein) (Homo sapiens, UniProt Q92796); conditions: PDZ NeDLG
T2 construct: made in house; host or cells: E. coli (DH5alpha, BL21 or JM109)
T2 sequence (Q92796 1-817): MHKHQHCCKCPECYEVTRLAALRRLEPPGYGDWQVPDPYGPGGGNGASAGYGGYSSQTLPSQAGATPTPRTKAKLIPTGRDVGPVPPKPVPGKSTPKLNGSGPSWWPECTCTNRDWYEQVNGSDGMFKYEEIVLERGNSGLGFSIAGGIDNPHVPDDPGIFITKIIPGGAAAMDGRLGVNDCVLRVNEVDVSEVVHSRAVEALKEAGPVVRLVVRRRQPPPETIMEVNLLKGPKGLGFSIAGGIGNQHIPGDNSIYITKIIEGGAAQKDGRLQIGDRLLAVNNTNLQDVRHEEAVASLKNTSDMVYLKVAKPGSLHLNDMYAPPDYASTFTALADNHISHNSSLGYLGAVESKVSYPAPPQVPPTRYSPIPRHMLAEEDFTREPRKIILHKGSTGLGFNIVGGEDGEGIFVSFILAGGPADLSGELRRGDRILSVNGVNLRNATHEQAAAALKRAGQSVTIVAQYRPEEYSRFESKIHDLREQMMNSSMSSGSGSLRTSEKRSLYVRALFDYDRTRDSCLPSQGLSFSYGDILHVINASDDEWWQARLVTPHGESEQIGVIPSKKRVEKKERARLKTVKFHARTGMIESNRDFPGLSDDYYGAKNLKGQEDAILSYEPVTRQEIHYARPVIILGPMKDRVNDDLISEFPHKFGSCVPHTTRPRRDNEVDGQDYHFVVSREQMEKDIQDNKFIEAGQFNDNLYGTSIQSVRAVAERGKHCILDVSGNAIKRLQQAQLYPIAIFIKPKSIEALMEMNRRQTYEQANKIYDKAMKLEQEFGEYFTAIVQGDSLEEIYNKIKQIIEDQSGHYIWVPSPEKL
In short: as §1

[3] = target: T3, PDZ-domain polypeptide (GST/PDZ fusion protein) (Homo sapiens, UniProt Q86UL8); conditions: PDZ atrophin-1 interacting Protein, read-out: Peptide Optimal Conc (Kd by titration of the PL peptide)
T3 construct: made in house; host or cells: E. coli (DH5alpha, BL21 or JM109)
T3 sequence (Q86UL8 whole entry, the tested form may be a part): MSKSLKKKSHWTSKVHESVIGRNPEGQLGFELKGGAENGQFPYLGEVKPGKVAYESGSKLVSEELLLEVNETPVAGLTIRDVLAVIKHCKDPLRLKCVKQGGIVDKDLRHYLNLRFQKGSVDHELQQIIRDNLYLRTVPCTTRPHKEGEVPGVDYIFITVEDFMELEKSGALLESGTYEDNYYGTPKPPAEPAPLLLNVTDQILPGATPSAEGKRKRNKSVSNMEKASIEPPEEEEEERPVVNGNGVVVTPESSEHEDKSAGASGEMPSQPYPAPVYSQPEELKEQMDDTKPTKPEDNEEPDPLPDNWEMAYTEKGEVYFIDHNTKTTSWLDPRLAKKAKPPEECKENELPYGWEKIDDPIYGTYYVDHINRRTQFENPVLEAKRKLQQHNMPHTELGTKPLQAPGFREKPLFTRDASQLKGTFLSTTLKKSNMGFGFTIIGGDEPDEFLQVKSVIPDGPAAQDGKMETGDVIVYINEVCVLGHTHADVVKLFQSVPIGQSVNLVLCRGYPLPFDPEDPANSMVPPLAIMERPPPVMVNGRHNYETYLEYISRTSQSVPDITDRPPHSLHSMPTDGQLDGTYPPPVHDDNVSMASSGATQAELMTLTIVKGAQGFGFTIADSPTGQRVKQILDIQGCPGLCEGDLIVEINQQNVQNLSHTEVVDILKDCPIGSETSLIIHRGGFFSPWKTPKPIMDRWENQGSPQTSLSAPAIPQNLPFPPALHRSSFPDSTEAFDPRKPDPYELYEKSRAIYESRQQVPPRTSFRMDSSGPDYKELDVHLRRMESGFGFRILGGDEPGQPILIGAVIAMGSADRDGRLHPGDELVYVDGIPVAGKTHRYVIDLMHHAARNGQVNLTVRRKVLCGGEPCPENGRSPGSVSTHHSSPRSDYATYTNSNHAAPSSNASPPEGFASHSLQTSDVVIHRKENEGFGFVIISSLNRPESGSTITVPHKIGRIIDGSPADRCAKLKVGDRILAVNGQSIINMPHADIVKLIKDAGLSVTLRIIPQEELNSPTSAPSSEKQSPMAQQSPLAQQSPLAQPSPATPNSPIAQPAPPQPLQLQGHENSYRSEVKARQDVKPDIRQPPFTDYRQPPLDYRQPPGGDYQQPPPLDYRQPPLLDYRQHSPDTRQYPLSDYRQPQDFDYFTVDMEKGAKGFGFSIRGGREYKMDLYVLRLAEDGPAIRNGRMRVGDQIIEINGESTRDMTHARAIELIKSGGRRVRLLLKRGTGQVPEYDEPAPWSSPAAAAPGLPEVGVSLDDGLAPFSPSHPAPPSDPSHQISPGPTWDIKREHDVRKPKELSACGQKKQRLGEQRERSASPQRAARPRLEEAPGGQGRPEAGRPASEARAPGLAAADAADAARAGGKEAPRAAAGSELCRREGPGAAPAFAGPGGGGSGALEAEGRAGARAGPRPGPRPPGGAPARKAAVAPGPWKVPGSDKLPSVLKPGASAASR
In short: as §1

Work on `CC[C@H](C)[C@H](NC(=O)[C@H](CCCCN)NC(=O)[C@@H](NC(=O)[C@H](CO)NC(=O)[C@@H]1CCCN1C(=O)[C@H](Cc1ccccc1)NC(=O)[C@@H](NC(=O)[C@@H](NC(=O)[C@H](CCCNC(=N)N)NC(=O)[C@H](CCC(=O)O)NC(=O)[C@H](CC(C)C)NC(=O)[C@H](CC(C)C)NC(=O)[C@H](CC(C)C)NC(=O)[C@@H](NC(=O)CNC(=O)[C@@H](NC(=O)CCCC[C@@H]1SC[C@@H]2NC(=O)N[C@@H]21)C(C)C)[C@@H](C)O)C(C)C)[C@@H](C)CC)C(C)C)C(=O)N[C@@H](C)C(=O)N[C@H](C(=O)N[C@@H](CC(C)C)C(=O)N[C@H](C(=O)O)C(C)C)[C@@H](C)O` [Adenovirus E4 Type9] yielded a Kd [1] of 0.2 µM, a Kd ([2]; PDZ Domain 2, Protein Optimal Conc 5, read-out: Peptide Optimal Conc (Kd by titration of the PL peptide)) of 0.1 µM and a Kd ([3]; PDZ Domain 1, Protein Optimal Conc 0.5) of 0.02 µM. The Kd ([3]; PDZ Domain 3, Protein Optimal Conc 5) was 0.1 µM.
`CC(C)C[C@H](NC(=O)[C@H](C)NC(=O)[C@H](CO)NC(=O)CNC(=O)[C@@H](NC(=O)CCCC[C@@H]1SC[C@@H]2NC(=O)N[C@@H]21)[C@@H](C)O)C(=O)N[C@@H](CCC(N)=O)C(=O)N[C@@H](C)C(=O)N[C@@H](Cc1c[nH]c2ccccc12)C(=O)N[C@@H](CCCNC(=N)N)C(=O)N[C@@H](Cc1c[nH]cn1)C(=O)N[C@H](C(=O)N[C@@H](CO)C(=O)N[C@@H](CCCNC(=N)N)C(=O)N[C@@H](CCC(N)=O)C(=O)N[C@@H](C)C(=O)N[C@H](C(=O)N[C@@H](CCC(=O)O)C(=O)N[C@@H](CO)C(=O)N[C@H](C(=O)N[C@H](C(=O)O)C(C)C)[C@@H](C)O)[C@@H](C)O)[C@@H](C)O` [HPV E6 #66 (modified)] (Biotin-TGSALQAWRHTSRQATESTV-OH; C-terminus assumed) was tested, and the Kd ([2]; PDZ Domain 1, 2, read-out: Peptide Optimal Conc (Kd by titration of the PL peptide)) was 1 µM and the Kd ([2]; PDZ Domain 2, read-out: Peptide Optimal Conc (Kd by titration of the PL peptide)) was 3.5 µM.
Work on `CC[C@H](C)[C@H](NC(=O)[C@H](CO)NC(=O)[C@@H](NC(=O)[C@H](Cc1ccccc1)NC(=O)[C@H](CO)NC(=O)CCCC[C@@H]1SC[C@@H]2NC(=O)N[C@@H]21)[C@@H](C)O)C(=O)N[C@@H](CC(C)C)C(=O)N[C@H](C(=O)N[C@@H](CS)C(=O)N[C@@H](Cc1c[nH]cn1)C(=O)N[C@@H](CCC(N)=O)C(=O)N[C@@H](CCCNC(=N)N)C(=O)N[C@@H](CCCNC(=N)N)C(=O)N[C@H](C(=O)N[C@@H](CCC(N)=O)C(=O)N[C@@H](CCCNC(=N)N)C(=O)N[C@@H](CCCCN)C(=O)N[C@@H](CCC(=O)O)C(=O)N[C@H](C(=O)N[C@H](C(=O)N[C@@H](C)C(=O)O)C(C)C)[C@@H](C)O)[C@@H](C)O)[C@@H](C)O` [GluR5-2 (rat)] yielded a Kd ([2]; PDZ Domain 1, 2, titration of the PL peptide, read-out: Peptide Optimal Conc (Kd, dissociation constant)) of 0.1 µM.
